Legend:
[1] = test system: A375 cells; assay: Growth of cultured melanoma cells, hemocytometer counting; type: cell-based, human
Description: A super-repressor form of human IκBα (S32, 36A) resistant to degradation and mutant IKKβ […]) was kindly provided by Javier […] Cancer Center, University of California-San Diego School of Medicine). Antibodies to IKKα (H-744), IKKβ (H-470), Bcl-2, Bax and AIF were purchased from Santa Cruz Biotechnology, Inc. (Santa Cruz, Calif.). […] N-acetyl-L-cysteine (NAC) and Tiron were from Sigma-Aldrich (St. Louis, Mo.). Normal human epidermal melanocytes (NHEM) were provided by the Skin Disease Research Center in Vanderbilt University School of Medicine. NHEM were cultured in 154 medium with 1× human melanocyte growth supplement (Cascade Biologicals, Inc.). The melanoma cell lines, Sk Mel5, A375 and Hs294T, originally established from human metastatic melanoma, were purchased from American Type Culture Collection and cultured in DMEM: Ham's F-12 medium containing 10% FBS, 2 mM of L-glutamine, 100 μM of MEM Non-Essential Amino Acids (Life Technologies, Inc.), and 1 mM of sodium pyruvate (Sigma Chemical Co.). Aberrant activation of NF-κB has been associated with carcinogenesis, and constitutively high IKK activity has been detected in many tumor types, including human melanoma (Yang & Richmond, 2001; […] et al., 2003; […] et al., 2003). IKK is a major regulator of the NF-κB pathway and therefore represents an attractive therapeutic target in advanced cancers. […] After three days of culture, the cell numbers were determined by hemocytometer counting (Table 1).

[2] = test system: SK-Mel-5 cells; assay: Mitochondrial membrane potential (Δψm), DiOC6 and FACS; type: cell-based, human; conditions: SK-Mel-5, 10 μM
Procedure: FIGS. 5A-5E. […] (FIG. 5A) Redistribution of Bcl-2 and Bax in mitochondria. […] Subcellular mitochondria and cytoplasm were prepared and subjected to Western blot analysis for Bcl-2 and Bax. (FIG. 5B) Dissipation of mitochondrial Δψm. […] After exposure, mitochondria were isolated and incubated with 80 μM 3,3′dihexyloxacarbocyanine iodide (DiOC6) at 37° C. for 15 min. Δψm was determined by FACS analysis using 484/530 nm filters within 10 min while gating the forward and sideward scatters on intact mitochondria (FIG. 5C). (FIG. 5D) Release of cytochrome-C and AIF. […] Subcellular extracts were prepared and subjected to Western blot analysis for cytochrome-C and AIF. […] The supernatant was assessed for cytochrome-c release. […]
For quantification of cell death, DNA content was analyzed on a FACScan (Becton Dickinson, San Jose, Calif.). […] Cell fluorescence was measured by flow cytometry with 488 nm excitation and 620 nm emission filters and data were analyzed using DNA content histogram deconvolution software (Multicycle, Phoenix Flow Systems). […] ROS were determined by FACS analysis with 488 nm excitation and 585 emission filters.
Mitochondria play a crucial role in the regulation of programmed cell death (Zamzami et al., 1995a; 1995b; 1996a; 1996b). […] The change in mitochondrial membrane potential (Δψm) was determined by FACS analysis after the mitochondria were stained with DiOC6.

[3] = test system: SK-Mel-5 cells; assay: Nuclear apoptosis (DNA fragmentation) by flow cytometry; type: cell-based, human; conditions: for rate of apoptotic cells: 10 μM, 24 h
Procedure: FIGS. 4A-4H. […] Paraffin-embedded tumor tissues were subjected to H&E staining (FIGS. 4C & D) and DeadEnd Fluorometric TUNEL-assay for detection of apoptosis (FIGS. 4E & F). The TUNEL-positive cells are visualized in green fluorescence in a red (Propidium Iodide) background by fluorescence microscopy. […] After 36 h incubation, cells were collected and fixed with 1% formaldehyde and 70% ice-cold ethanol. The apoptotic cells were examined using TUNEL-assay and analyzed by flow cytometry through measuring fluorescein-12-dUTP at 520 nm. The apoptotic rate is indicated in each box. Data shown are represented one of three independent experiments. […] Cells were fixed and stained with Propidium iodide. Cell fluorescence was measured by flow cytometry and the data were analyzed using DNA content histogram deconvolution software (Multicycle from Phoenix Flow Systems). The percentage of apoptotic cells with fragmented DNA (PI intensity sub-G0/G1) is indicated at each time point. The experiments were repeated twice, in duplicates for each point (total n=4).

[4] = test system: CXCL1; assay: CXCL1 ELISA of serum of mice bearing melanoma tumors; type: in vivo
Procedure: FIGS. 2A-2D. […] SK-Mel-5 cells were plated in 6-well plates (1.5×10^5 cells per well) and then cotransfected with 1 μg of HIV long terminal repeat NF-κB-luciferase vector and β-galactosidase vector DNA using Lipofectamine Plus reagent. Twenty-four hours after transfection, cells in duplicate plates were treated with 0, 0.1, 1 and 10 μM of BMS-345541in DMSO and incubated for an additional 36 h. Cell extract was prepared and luciferase activity was detected. Luciferase activity was normalized to β-galactosidase activity. […] ATP. The [γ-^32P]-labeled IκBα protein was visualized by autoradiography. […] The supernatants from B were cleared by centrifugation, or (FIG. 2D) sera were collected from mice, and subjected to ELISA assay for CXCL1 according to the manufacture's protocol. Data shown are from a representative data set from two experiments performed in duplicate (total n=4 for each point). For ELISA; the mean value is representative of serum samples from five mice.
To quantify the CXCL1 expression levels in vivo and in vitro, serum was collected at the end of the experiments from mice bearing SK-Mel-5 melanoma tumors or from the cleared supernatants of melanoma cell culture medium. Briefly, 1.5×10^5 of SK-Mel-5 cells/well were seeded in six-well plates in duplicate in DMEM/F12 medium containing 10% FBS.

Cc1ccc2nc(NCCN)c3ncc(C)n3c2c1.Cl [BMS-345541, 4(2′-aminoethyl)amino-1,8-dimethylimidazo(1,2-a)quinoxaline]
cell number after three days of culture ([1]; A375, 0.1 μM): 3.2 ± 0.38 10^5
cell number after three days of culture ([1]; A375, 1.0 μM): 1.6 ± 0.38 10^5
cell number after three days of culture ([1]; A375, 10 μM): 0.020 ± 0.01 10^5
cell number after three days of culture ([1]; A375, 100 μM): 0 10^5
loss of mitochondrial membrane potential ([2]; 24 h): 16±1.5%
loss of mitochondrial membrane potential ([2]; 48 h): 87±5.4%
rate of apoptotic cells ([3]; AIF siRNA-transfected cells): 10.3±3.8%
rate of apoptotic cells ([3]; control siRNA-transfected cells): 24.3±6.8%
induction of DNA fragmentation ([3]; SK-Mel-5, 10 μM, 0-48 h (FIG. 4H)): time-dependent
CXCL1 expression in mouse sera [4]: suppressed in a concentration-dependent manner

— patent publication US20060025419A1, “Imidazoquinoxaline compound for the treatment of melanoma” (priority 2004, published 2006)
